Results taken from patent publication US20030225152A1, “3-(Arylamino)methylene-1, 3-dihydro-2h-indol-2-ones as kinase inhibitors” (priority 2001, published 2003).

Key:
[1] = target: T1, cytoplasmic domain of the human VEGF receptor (VEGFR-2) (Homo sapiens, UniProt P35968); experiment: KDR Assay; assay type: biochemical; settings: His-VEGFR-2; 3.6 μM ATP
T1 construct: The cytoplasmic domain of the human VEGF receptor (VEGFR-2) was expressed as a Histidine-tagged fusion protein; Histidine tag
Method in brief: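 IC50 taken from blank-corrected OD492 curves of an anti-phosphotyrosine peroxidase ELISA. Reaction: 10 min, 25 °C, 3.6 μM ATP, 50 mM Hepes pH 7.4 with 20 mM MgCl2, 0.1 mM MnCl2 and 5% DMSO, on poly-Glu-Tyr-coated wells, started with insect-cell-expressed His-VEGFR-2 cytoplasmic domain.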

[2] = system: VEGF induced increases in intracellular calcium levels in HUVEC (human umbilical vein endothelial cells); experiment: VEGF Stimulated Ca++ Signal in vitro (FLIPR); assay type: cell-based; settings: VEGF 5 ng/mL; for IC50: 0.01 to 10.0 μM
Method in brief: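 IC50 values derive from % inhibition of the VEGF (5 ng/mL) calcium response, taken as max-min fluorescence at 516 nm in Fluo-4-loaded HUVEC. Compounds (0.1% DMSO final) were added 30 min before stimulation, at 10 μM or across 0.01–10.0 μM.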

[3] = system: VEGF-induced EBD extravasation; experiment: VEGF-induced Dermal Extravasation in Guinea Pig (Miles Assay); assay type: in vivo
Method: VEGF-induced Dermal Extravasation in Guinea Pig (Miles Assay). Male Hartley guinea pigs (300-600 g) were anesthetized with isofluorane, sheared, and given a single dose of drug or the respective vehicle. The guinea pigs were dosed orally unless indicated otherwise in Table 3. Ten minutes prior to the end of drug treatment, guinea pigs were anesthetized with isofluorane, and 0.5% Evans blue dye (EBD) in PBS (13-15 mg/kg dose of EBD) was injected intravenously. After 5 minutes, triplicate intradermal injections of 100 ng rhVEGF165 in 100 μl PBS and of 100 μl PBS alone were administered on the flank. After 20 minutes, each animal was euthanized with Pentosol, and the skin containing the intradermal injection sites was removed for image analysis.
Using an analog video camera coupled to a PC, an image of each trans-illuminated skin sample was captured, and the integrated optical density of each injection site was measured using ImagePro 4. For each skin sample, the difference between the mean optical density of the VEGF sites and mean optical density of the PBS sites is the measure of VEGF-induced EBD extravasation in that animal. These measured values were averaged per study group to determine the mean VEGF-induced EBD extravasation for each experimental condition, and the group means were then compared to assess inhibition of VEGF-induced EBD extravasation in the drug-treated groups relative to the vehicle-treated controls.
To determine the dose required for 50% inhibition (ID50), the percent inhibition data was plotted as a function of oral dose, using the ‘best-fit’ analysis within MicroSoft Excel software. The ID50 value was verified visually by using the plotted data (horizontal line from 50% y value, at intersection with best-fit line drop vertical line to x axis (dose)).

T1 sequence (P35968 786-1356): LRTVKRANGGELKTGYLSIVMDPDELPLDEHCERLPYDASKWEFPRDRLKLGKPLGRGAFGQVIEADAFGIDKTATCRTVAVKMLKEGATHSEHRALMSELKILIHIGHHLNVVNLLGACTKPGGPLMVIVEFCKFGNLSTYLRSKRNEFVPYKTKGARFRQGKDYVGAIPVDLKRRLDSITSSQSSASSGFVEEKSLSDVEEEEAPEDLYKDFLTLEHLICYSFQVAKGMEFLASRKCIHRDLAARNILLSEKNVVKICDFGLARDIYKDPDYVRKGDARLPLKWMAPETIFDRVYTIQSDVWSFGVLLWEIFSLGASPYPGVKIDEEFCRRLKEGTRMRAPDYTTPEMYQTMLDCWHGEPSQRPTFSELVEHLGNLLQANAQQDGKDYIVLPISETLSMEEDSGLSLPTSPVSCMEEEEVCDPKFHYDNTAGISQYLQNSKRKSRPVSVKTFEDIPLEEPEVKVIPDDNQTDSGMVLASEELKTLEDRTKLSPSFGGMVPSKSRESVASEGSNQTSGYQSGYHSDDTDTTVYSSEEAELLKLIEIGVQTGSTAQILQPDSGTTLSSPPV

Row | Compound | IC50 [1] [nM] | IC50 [2] [nM] | inhibition at 10 µM ([2]; Homo sapiens) [%] | IC50 ([2]; Homo sapiens) [nM] | Miles Assay % inhibition ([3]; 75 mg/kg, PEG400, oral) [%] | Miles Assay % inhibition ([3]; 75 mg/kg, corn oil, oral) [%] | Miles Assay % inhibition ([3]; 40 mg/kg, corn oil, oral) [%]
1 | CN(C)c1ccc(NC=C2C(=O)Nc3ccccc32)cc1 [Example 156, 3-[(4-Dimethylamino-phenylamino)-methylene]-1,3-dihydro-indol-2-one] | 510 | 830 | 95.4 | ≤ 1000 | 100 |  | 
2 | O=C1Nc2ccccc2C1=CNc1ccc(OCCCCN2CCCC2)cc1 [Example 179, 3-{[4-(4-Pyrrolidin-1-yl-butoxy)-phenylamino]-methylene}-1,3-dihydro-indol-2-one] | 310 | 640 | 97.3 | ≤ 1000 | 65 |  | 
3 | O=C1Nc2ccccc2C1=CNc1ccc(OCCCCN2CCOCC2)cc1 [Example 206, 3-{[4-(4-Morpholin-4-yl-butoxy)-phenylamino]-methylene}-1,3-dihydro-indol-2-one] | 240 | 670 | 96.3 | ≤ 1000 |  | 74 | 
4 | CCN(CC)CCCCOc1ccc(NC=C2C(=O)Nc3ccccc32)cc1 [Example 207, 3-{[4-(4-Diethylamino-butoxy)-phenylamino]-methylene}-1,3-dihydro-indol-2-one] | 240 | 510 | 98.6 | ≤ 1000 |  | 80 | 
5 | CN1CCN(CCCCOc2ccc(NC=C3C(=O)Nc4ccccc43)cc2)CC1 [Example 208, 3-({4-[4-(4-Methyl-piperazin-1-yl)-butoxy]-phenylamino}-methylene)-1,3-dihydro-indol-2-one] | 260 | 530 | 99 | ≤ 1000 |  | 32 | 
6 | Nc1cccc(NC=C2C(=O)Nc3ccccc32)c1 [Example 211, 3-[(3-Amino-phenylamino)-methylene]-1,3-dihydro-indo1-2-one] | 460 | 660 | 96.7 | ≤ 1000 | 38 |  | 
7 | CCN(CC)CCCOc1ccc(NC=C2C(=O)Nc3ccccc32)cc1 [Example 214, 3-{[14-(3-Diethylamino-propoxy)-phenylamino]-methylene}-1,3-dihydro-indol-2-one] | 330 |  | 97.3 |  | 61 | 78 | 
8 | CC1CN(c2ccc(NC=C3C(=O)Nc4ccc(F)cc43)cc2)CC(C)O1 (stereo not shown) [Example 219, 3-{[4-(2,6-Dimethyl-morpholin-4-yl)-phenylamino]-methylene}-5-fluoro-1,3-dihydro-indol-2-one] | 220 | 620 | 97.4 | ≤ 1000 | 28 |  | 
9 | CC1CN(c2ccc(NC=C3C(=O)Nc4cc(F)ccc43)cc2)CC(C)O1 (stereo not shown) [Example 229, 3-{[4-(2,6-Dimethyl-morpholin-4-yl)-phenylamino]-methylene}-6-fluoro-1,3-dihydro-indol-2-one] | 110 |  | 97.2 |  | 97 |  | 
10 | O=C1Nc2cc(F)ccc2C1=CNc1ccc(OCCCCN2CCCCC2)cc1 [Example 247, 6-Fluoro-3-{[4-(4-piperidin-1-yl-butoxy)-phenylamino]-methylene}-1,3-dihydro-indol-2-one] | 200 |  |  |  |  | 45 | 
11 | CCN(CC)CCCOc1ccc(NC=C2C(=O)Nc3cccc(C)c32)cc1F [Example 249, 3-{[4-(3-Diethylamino-propoxy)-3-fluoro-phenylamino]-methylene}-4-methyl-1,3-dihydro-indol-2-one] | 70 |  |  |  |  | 29 | 
12 | CCN(CC)CCCOc1ccc(NC=C2C(=O)Nc3cc(F)ccc32)cc1F [Example 250, 3-{[4-(3-Diethylamino-propoxy)-3-fluoro-phenylamino]-methylene}-6-fluoro-1,3-dihydro-indol-2-one] | 150 |  |  |  |  | 62 | 
13 | CCN(CC)CCOc1ccc(NC=C2C(=O)Nc3cc(F)ccc32)cc1 [Example 266, 3-{[4-(2-Diethylamino-ethoxy)-phenylamino]-methylene}-6-fluoro-1,3-dihydro-indol-2-one] | 170 |  |  |  |  |  | 82

Now from value to compound, other results behind:

Row | IC50 [1] [nM] | Compound | IC50 [2] [nM] | inhibition at 10 µM ([2]; Homo sapiens) [%] | IC50 ([2]; Homo sapiens) [nM] | Miles Assay % inhibition ([3]; 75 mg/kg, PEG400, oral) [%] | Miles Assay % inhibition ([3]; 75 mg/kg, corn oil, oral) [%] | Miles Assay % inhibition ([3]; 40 mg/kg, corn oil, oral) [%]
14 | 250 | CN1CCN(c2ccc(NC=C3C(=O)Nc4ccccc43)cc2)CC1 [Example 157, 3-{[4-(4-Methyl-piperazin-1-yl)-phenylamino]-methylenel}-1,3-dihydro-indol-2-one] |  | 97.9 |  | 38 |  | 
15 | 190 | O=C1Nc2ccc(F)cc2C1=CNc1ccc(N2CCOCC2)cc1 [Example 167, 5-Fluoro-3-[(4-morpholin-4-yl-phenylamino)-methylene]-1,3-dihydro-indol-2-one] |  | 95.7 |  | 31 |  | 
16 | 350 | Cc1cccc2c1C(=CNc1ccc(N)cc1)C(=O)N2 [Example 181, 3-[(4-Amino-phenylamino)-methylene]-4-methyl-1,3-dihydro-indol-2-one] |  | 97.7 |  | 38 |  | 
17 | 340 | O=C1Nc2ccccc2C1=CNc1ccc(OCCCN2CCOCC2)cc1 [Example 215, 3-{[4-(3-Morpholin-4-yl-propoxy)-phenylamino]-methylene}-1,3-dihydro-indol-2-one] | 670 | 96.7 | ≤ 1000 | 53 |  | 
18 | 340 | O=C1Nc2ccccc2C1=CNc1ccc(OCCCN2CCCC2)cc1 [Example 216, 3-{[4-(3-Pyrrolidin-1-yl-propoxy)-phenylamino]-methylene}-1,3-dihydro-indol-2-one] | 570 | 95.3 | ≤ 1000 | 91 |  | 
19 | 60 | Cc1cccc2c1C(=CNc1ccc(N3CC(C)OC(C)C3)cc1)C(=O)N2 (stereo not shown) [Example 220, 3-{[4-(2,6-Dimethyl-morpholin-4-yl)-phenylamino]-methylene}-4-methyl-1,3-dihydro-indol-2-one] |  | 94.9 |  | 39 |  | 
20 | 60 | Cc1cccc2c1C(=CNc1ccc(OCCCN3CCCCC3)cc1)C(=O)N2 [Example 238, 4-Methyl-3-{[4-(3-piperidin-1-yl-propoxy)-phenylamino]-methylene}-1,3-dihydro-indol-2-one] | 780 | 98.4 | ≤ 1000 |  | 60 | 
21 | 110 | O=C1Nc2cc(F)ccc2C1=CNc1ccc(NCCN2CCOCC2)cc1 [Example 243, 6-Fluoro-3-{[4-(2-morpholin-4-yl-ethylamino)-phenylamino]-methylene}-1,3-dihydro-indol-2-one] |  | 95.6 |  |  | 100 | 
22 | 130 | O=C1Nc2cc(F)ccc2C1=CNc1ccc(OCCN2CCCC2)cc1 [Example 271, 6-Fluoro-3-{[4-(2-pyrrolidin-1-yl-ethoxy)-phenylamino]-methylene}-1,3-dihydro-indol-2-one] |  |  |  |  |  | 98
23 | 270 | O=C1Nc2ccc(Cl)cc2C1=CNc1ccc(CCN2CCOCC2)cc1 [Example 307, 5-Chloro-3-{[4-(2-morpholin-4-yl-ethyl)-phenylamino]-methylene}-1,3-dihydro-indol-2-one] | 650 |  | ≤ 1000 |  |  | 
24 | 230 | O=C1Nc2cccc(F)c2C1=CNc1ccc(CCN2CCOCC2)cc1 [Example 309, 4-Fluoro-3-{[4-(2-morpholin-4-yl-ethyl)-phenylamino]-methylene}-1,3-dihydro-indol-2-one] | 680 |  | ≤ 1000 |  |  | 
